What all share (assay type): in vivo, SKH-1 hairless mice
The nature of assay [1]: Short-chain fatty acid (SCFA) analysis of caecum using GC. How it is done: The caecum of the mouse was harvested and extracted with methanol, and then the extract was analyzed for SCFA by using gas chromatography (Agilent Technologies, CA, USA) equipped with GC column (DB-FFAP 123-3253, 50 m×0.32 mm×[…]). The column temperature was set to be maintained at 100° C. for 1 minute, raised to 180° C. at a rate of 8° C./min, then raised to 200° C. at a rate of 20° C./min, and then stagnant at 200° C. for 5 min. The SCFA contents in the caecum were analyzed through the standard materials of acetic acid, propionic acid, and butyric acid.

Another assay concerns intestinal microflora. The assay can be described thus: Intestinal microflora change analysis (16S rRNA sequencing of caecum). The settings on record: photo-aging model, oral. The text has this:
The caecum of the mouse was harvested, and subjected to extraction using the i-genome clinic DNA extraction kit. The 16S rRNA library was constructed through the protocol of Illumina 16S V3˜V4 Amplicon (Illumina, San Diego, Calif., USA). The 16S rRNA V3-V4 region was amplified by the first polymerase chain reaction (PCR-1) using the DNA extract, and the PCR product was purified using Agencourt AMPure XP Beads (Beckman Coulter, Inc., Pasadena, Calif., USA), and the washed amplicons were quantified. The PCR product was used as a template for the second PCR (PCR-II) with Illumina dual index adapter sequence, and the final amplicon library was sequenced using the v3, 600 cycle kit and 301 base paired-end chemistry. Sequence data analysis was performed through QIIME 2 software, and then quality filtering was performed. […] The operational taxonomic units (OTUs) of the sequence were analyzed, and the alpha diversity analysis included the Richness, Shannon Index, and Abundance-based Coverage Estimator (ACE) indexes. […] The Kruskal-Wallis test was performed to analyze the diversity of the intestinal microflora and the difference in relative abundance, and the difference in beta diversity was analyzed by the ANOSIM and permutational multivariate analysis of variance (PERMANOVA) tests.

The subject of a further assay is MMP2. The assay can be described thus: qRT-PCR of skin tissue, MMP 2. The settings on record: compared with CON. How it is done:
(§1) In order to investigate the effects of the compositions of the present disclosure on the expression of skin condition-related genes, the present inventors measured the expression levels of collagen type I, matrix metalloproteinase (MMP) 2/3/9, TIMP1/2, hyaluronidase (HYAL), and NF-K in comparison with GAPDH.
(§2) Specifically, about 100 mg of the skin tissue was collected from each mouse of the experimental groups administered the compositions of the present disclosure, and total RNA was isolated using TRIzol reagent. To the isolated RNA was added 50 μM Oligo-(dT) primer and 10 mM dNTP mix, followed by reaction at […] for 5 minutes, and then 5×RT Buffer, 0.1 M DTT, RNaseOUT, SuperScript III, and 25 mM MgCl2 were added with mixing, followed by reaction under conditions of 50° C. for 50 minutes and 85° C. for 5 minutes. RNase H was added and incubated at 37° C. for 20 minutes, thereby synthesizing cDNA from mRNA. To perform POR, 1 μL of the synthesized cDNA was mixed with primers, SYBR green gene expression master mix, and DEPO water, followed by qPCR. The expression level of each target gene was indicated as a relative expression level compared with the NOR group.
For orientation: Quantitative PCR measures a nucleic acid by following its amplification.

For assay [2], the system named is dorsal skin of the mice, irradiated with ultraviolet light. The experiment in a line: Erythema value. The settings on record: UVB-irradiated mice, oral 8 weeks, compared with CON; no significant difference. How it is done: (§3) A total of seven experimental groups (six animals per group) were defined as a normal control group (normal, not UVB-induced), a negative control group (control, UVB-irradiated), a GOS alone treatment group (GOS 200 mg/kg, UVB-irradiated) and a CTP alone treatment group (CTP 200 mg/kg, UVB-irradiated), a GOS/CTP 1:3 mixed treatment group (GOS/CTP 50:150 mg/kg, UVB-irradiated), a GOS/CTP 1:1 mixed treatment group (100:100 mg/kg, UVB-irradiated), and a GOS/CTP 3:1 mixed treatment group (GOS/CTP 150:50 mg/kg, UVB-irradiated).
(§4) The mice were acclimated for one week, and then photo-aging was induced in the mice of six groups except for the normal control group (NOR) by exposing their dorsal skin to ultraviolet light three times a week for 8 weeks through the ultraviolet irradiation device (BLX-E254, Vilber Lourmat, France) equipped with the UVB-ultraviolet lamp (T-8M; Vilber Lourmat, France) (Hong et al., 2015). As for the dosage of ultraviolet irradiation, the irradiation dosage inside the ultraviolet irradiation device was measured by the UV light meter (UV-340; Lutron, Taiwan) and adjusted, and then the UVB dosage was controlled as shown in Table 1. […]

Another assay deals with TIMP1. The experiment in a line: qRT-PCR of skin tissue, TIMP 1. Conditions: compared with CON. How it is done: as §1, §2
In assay [3] the test system is dorsal skin of the mice, irradiated with ultraviolet light. The experiment in a line: Skin water-holding capacity (Multi Probe Adapter MPA 6). Conditions: UVB-irradiated mice, oral 8 weeks, compared with CON. As to the method: as §3, §4

Consider one substance from US20220304356A1, “FUNCTIONAL FOOD COMPOSITIONS AND COSMETIC COMPOSITIONS COMPRISING GALACTO-OLIGOSACCHARIDES, OR GALACTOOLIGOSACCHARIDES AND COLLAGEN TRIPEPTIDE FOR IMPROVING IMMUNE FUNCTIONS AND SKIN CONDITION” (NEO CREMAR CO., LTD., priority 2020, published 2022).

Consider collagen tripeptide [CTP], for which, in assay [1], the “content of butyric acid” value is listed as “significantly increased”. Further, in assay [1] (compared with CON), the “content of valeric acid” value is listed as “significant increase” and the “total short-chain fatty acid content” value is recorded as “tendency of increase”. Also, in assay [1] (compared with CON, no significant difference), the “content of propionic acid” value is “tended to increase”. For the same substance, the Firmicutes/Bacteroidetes ratio entry with intestinal microflora is on record as “tended to increase”. Moreover, in the assay with MMP2, the “gene expression level of MMP 2” value is “significantly decreased”. Further, in assay [2], the “change in erythema value before and after ultraviolet irradiation” value is on record as “tended to decrease”. The “gene expression level of TIMP 1” value in the assay on TIMP1 is recorded as “significantly increased”. The “change in water-holding capacity before and after ultraviolet irradiation” value in assay [3] is listed as “significantly increased”.
